# Experimental data: patent US12637471B2, “Heterocyclic compounds, compositions, methods of preparation and uses thereof” (Organon R&D Finland Ltd, priority 2021, dated 2026)
# Key:
# Format in all cases: biochemical
# [1] = target: T1, 17β-Hydroxysteroid Dehydrogenase Type 2 Enzyme (17β-HSD2) (Homo sapiens, UniProt P37059); test: Inhibition of the 17β-hydroxysteroid dehydrogenase type 2 enzyme, 3H-testosterone conversion; settings: inhibitor at 10 μM
# T1 construct: made in house; host or cells: Sf-9 insect cells (baculovirus)
# T1 sequence (P37059 1-387): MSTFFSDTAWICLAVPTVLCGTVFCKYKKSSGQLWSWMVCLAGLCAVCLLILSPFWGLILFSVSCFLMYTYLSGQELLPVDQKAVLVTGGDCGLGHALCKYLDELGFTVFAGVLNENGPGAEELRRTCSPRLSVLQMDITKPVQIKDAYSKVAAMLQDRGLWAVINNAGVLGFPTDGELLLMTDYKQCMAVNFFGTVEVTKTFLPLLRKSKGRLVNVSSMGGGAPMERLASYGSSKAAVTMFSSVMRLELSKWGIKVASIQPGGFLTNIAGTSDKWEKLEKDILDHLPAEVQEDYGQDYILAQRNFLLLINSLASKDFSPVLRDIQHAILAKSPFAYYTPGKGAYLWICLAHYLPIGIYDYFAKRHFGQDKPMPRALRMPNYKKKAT
# How it was run: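 Recombinant human 17β-HSD2 (Sf-9/baculovirus; 105 nM) incubated with 56.25 nM ³H-testosterone and 1 mM NAD in 20 mM KH2PO4 pH 8.5, 1 mM EDTA, 1% DMSO, 30 min at RT, inhibitor 10 μM. Reaction stopped with TCA; conversion to ³H-androstenedione by radio-UPLC gives percent inhibition.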
# [2] = target: T2, Recombinant human aldo-keto reductase family 1 member C2 (AKR1C2) protein (Homo sapiens, UniProt P52895); test: Inhibition of the aldo-keto reductase family 1 member C2, 3H-dihydrotestosterone conversion; settings: inhibitor at 10 μM
# T2 construct: made in house; host or cells: Sf-9 insect cells (baculovirus)
# T2 sequence (P52895 1-323): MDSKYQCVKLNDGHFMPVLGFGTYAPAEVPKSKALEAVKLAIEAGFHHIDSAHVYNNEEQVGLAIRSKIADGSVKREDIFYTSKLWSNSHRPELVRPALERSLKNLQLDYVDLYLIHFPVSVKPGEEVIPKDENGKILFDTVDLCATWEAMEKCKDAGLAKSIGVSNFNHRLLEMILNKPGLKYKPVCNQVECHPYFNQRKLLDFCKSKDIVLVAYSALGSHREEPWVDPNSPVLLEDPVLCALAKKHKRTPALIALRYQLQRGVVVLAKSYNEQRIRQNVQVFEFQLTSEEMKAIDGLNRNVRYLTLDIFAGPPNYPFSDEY
# How it was run: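 Sf-9-expressed enzyme (13.6 nM) incubated 45 min at 37 °C in 20 mM KH2PO4 pH 7.4 with 1 mM NADPH, 6.25 nM [3H]dihydrotestosterone and 10 μM compound (1% DMSO). After TCA stop, substrate and 5α-androstane-3α,17β-diol resolved by UPLC with radio-detection; inhibition from percent conversion.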
# [3] = target: T3, Recombinant human AKR1C3 (17β-HSD5) protein (Homo sapiens, UniProt P42330); test: Inhibition of AKR1C3 (17β-hydroxysteroid dehydrogenase type 5) enzyme, fluorescence assay; settings: inhibitor at 500 nM
# T3 construct: made in house; host or cells: E. coli
# T3 sequence (P42330 1-323): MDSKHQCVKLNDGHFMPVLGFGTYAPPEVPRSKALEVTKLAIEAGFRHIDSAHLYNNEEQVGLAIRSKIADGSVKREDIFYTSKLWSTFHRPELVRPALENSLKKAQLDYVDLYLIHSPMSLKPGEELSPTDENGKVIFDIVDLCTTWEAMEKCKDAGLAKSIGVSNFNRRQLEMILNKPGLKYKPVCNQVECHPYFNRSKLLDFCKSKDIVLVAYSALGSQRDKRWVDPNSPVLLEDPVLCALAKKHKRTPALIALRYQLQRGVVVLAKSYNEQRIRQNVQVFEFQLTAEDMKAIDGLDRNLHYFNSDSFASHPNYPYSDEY
# How it was run: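 E. coli-expressed human AKR1C3 (27 nM) in 20 mM KH2PO4, 1 mM EDTA, pH 7.4, with 1 μM pyranoquinolinone ketone substrate, 1 mM NADPH and inhibitor at 500 nM, 1% DMSO, 60–120 min at RT. Fluorescent alcohol product (ex 420/em 510 nm) quantified against standards; inhibition derived from conversion percentages.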
SMILES,inhibition at 10 µM [1] [%],inhibition at 10 µM [2] [%],inhibition at 0.5 µM [3] [%]
"N#CC(=C1CCN(C(=O)N2CCC(CCO)CC2)CC1)c1ccc(F)cc1 [Compound 97, 2-(4-fluorophenyl)-2-(1-(4-(2-hydroxyethyl)piperidine-1-carbonyl)piperidin-4-ylidene)acetonitrile]",9,9,96
"N#CC(=C1CCN(C(=O)N2CCc3cc(F)ccc32)CC1)c1ccc(F)cc1 [Compound 109, 2-(1-(5-fluoroindoline-1-carbonyl)piperidin-4-ylidene)-2-(4-fluorophenyl)acetonitrile]",26,12,96
"N#CC(=C1CCN(C(=O)N2CCc3sccc3C2)CC1)c1ccc(OC(F)(F)F)cc1 [Compound 117, 2-(1-(4,5,6,7-tetrahydrothieno[3,2-c]pyridine-5-carbonyl)piperidin-4-ylidene)-2-(4-(trifluoromethoxy)phenyl)acetonitrile]",22,7,94
"N#CC(=C1CCN(C(=O)N2CCc3[nH]ncc3C2)CC1)c1ccc(Cl)s1 [Compound 120, 2-(5-chlorothiophen-2-yl)-2-(1-(4,5,6,7-tetrahydro-1H-pyrazolo[4,3-c]pyridine-5-carbonyl)piperidin-4-ylidene)acetonitrile]",20,43,99
"N#CC(=C1CCN(C(=O)N2CCn3ncnc3C2)CC1)c1cc(F)cc(F)c1 [Compound 166, 2-(3,5-difluorophenyl)-2-(1-(5,6,7,8-tetrahydro-[1,2,4]triazolo[1,5-a]pyrazine-7-carbonyl)piperidin-4-ylidene)acetonitrile]",2,13,96
"N#CC(=C1CCN(C(=O)N2C3CCC2COC3)CC1)c1ccc(F)cc1 [Compound 15, 2-(1-(3-oxa-8-azabicyclo[3.2.1]octane-8-carbonyl)piperidin-4-ylidene)-2-(4-fluorophenyl)acetonitrile]",11,6,97
"N#CC(=C1CCN(C(=O)N2CCn3nncc3C2)CC1)c1ccc(C(F)(F)F)cc1 [Compound 150, 2-(1-(4,5,6,7-tetrahydro-[1,2,3]triazolo[1,5-a]pyrazine-5-carbonyl)piperidin-4-ylidene)-2-(4-(trifluoromethyl)phenyl)acetonitrile]",6,21,100
"N#CC(=C1CCN(C(=O)N2CCC(CCCO)CC2)CC1)c1ccc(F)cc1 [Compound 142, 2-(4-fluorophenyl)-2-(1-(4-(3-hydroxypropyl)piperidine-1-carbonyl)piperidin-4-ylidene)acetonitrile]",4,3,91
"CC(O)C1CCN(C(=O)N2CCC(=C(C#N)c3ccc(C(F)(F)F)cc3)CC2)CC1 (stereo not drawn) [Compound 151, 2-(1-(4-(1-hydroxyethyl)piperidine-1-carbonyl)piperidin-4-ylidene)-2-(4-(trifluoromethyl)phenyl)acetonitrile]",18,11,93
"Cn1ncc2cccc(C(C#N)=C3CCN(C(=O)N4CCc5nocc5C4)CC3)c21 [Compound 136, 2-(1-methyl-1H-indazol-7-yl)-2-(1-(4,5,6,7-tetrahydroisoxazolo[4,3-c]pyridine-5-carbonyl)piperidin-4-ylidene)acetonitrile]",26,6,99
"N#CC(=C1CCN(C(=O)N2C[C@@H]3CC[C@@H]2C3)CC1)c1ccc(F)cc1F [Compound 111, 2-(1-((1R,4R)-2-azabicyclo[2.2.1]heptane-2-carbonyl)piperidin-4-ylidene)-2-(2,4-difluorophenyl)acetonitrile]",8,13,95
"N#CC(=C1CCN(C(=O)N2C3CCC2COC3)CC1)c1cccc(Cl)c1 [Compound 156, 2-(1-(3-oxa-8-azabicyclo[3.2.1]octane-8-carbonyl)piperidin-4-ylidene)-2-(3-chlorophenyl)acetonitrile]",12,8,99
"N#CC(=C1CCN(C(=O)N2CC(CO)C2)CC1)c1ccc(F)cc1 [Compound 85, 2-(4-fluorophenyl)-2-(1-(3-(hydroxymethyl)azetidine-1-carbonyl)piperidin-4-ylidene)acetonitrile]",27,9,72
"N#CC(=C1CCN(C(=O)N2CCC(CO)CC2)CC1)c1ccc(F)c(F)c1 [Compound 33, 2-(3,4-difluorophenyl)-2-(1-(4-(hydroxymethyl)piperidine-1-carbonyl)piperidin-4-ylidene)acetonitrile]",7,16,97
"N#CC(=C1CCN(C(=O)N2CCc3nocc3C2)CC1)c1ccc(Cl)cn1 [Compound 161, 2-(5-chloropyridin-2-yl)-2-(1-(4,5,6,7-tetrahydroisoxazolo[4,3-c]pyridine-5-carbonyl)piperidin-4-ylidene)acetonitrile]",7,19,98
"N#CC(=C1CCN(C(=O)N2CCc3sccc3C2)CC1)c1ccc(Cl)s1 [Compound 64, 2-(5-chlorothiophen-2-yl)-2-(1-(4,5,6,7-tetrahydrothieno[3,2-c]pyridine-5-carbonyl)piperidin-4-ylidene)acetonitrile]",28,19,99
"N#CC(=C1CCN(C(=O)N2CCc3[nH]ncc3C2)CC1)c1ccc(Cl)cn1 [Compound 67, 2-(5-chloropyridin-2-yl)-2-(1-(4,5,6,7-tetrahydro-1H-pyrazolo[4,3-c]pyridine-5-carbonyl)piperidin-4-ylidene)acetonitrile]",9,6,98
"N#CC(=C1CCN(C(=O)N2CCn3cncc3C2)CC1)c1cc(F)cc(F)c1 [Compound 52, 2-(3,5-difluorophenyl)-2-(1-(5,6,7,8-tetrahydroimidazo[1,5-a]pyrazine-7-carbonyl)piperidin-4-ylidene)acetonitrile]",13,19,97
"N#CC(=C1CCN(C(=O)N2CCCC(O)CC2)CC1)c1ccc(F)cc1 (stereo not drawn) [Compound 107, 2-(4-fluorophenyl)-2-(1-(4-hydroxyazepane-1-carbonyl)piperidin-4-ylidene)acetonitrile]",-1,14,92
"N#CC(=C1CCN(C(=O)N2CCc3cccnc32)CC1)c1ccc(F)cc1 [Compound 30, 2-(1-(2,3-dihydro-1H-pyrrolo[2,3-b]pyridine-1-carbonyl)piperidin-4-ylidene)-2-(4-fluorophenyl)acetonitrile]",14,15,95
"CCOC1CCN(C(=O)N2CCC(=C(C#N)c3cccc(Cl)c3)CC2)CC1 [Compound 129, 2-(3-chlorophenyl)-2-(1-(4-ethoxypiperidine-1-carbonyl)piperidin-4-ylidene)acetonitrile]",5,11,98
